The results in this text go back to patent US20220397566A1, “GAMMA-SECRETASE STABILIZING COMPOUND SCREENING ASSAY” (VIB VZW, priority 2019, published 2022).

Read-outs that look alike come from different tables or passages of the source.

For orientation: IC50 means the concentration at which inhibition is half-maximal.

What all share (format): cell-based, mouse
The test system of one test is transferrin receptor. Description: Cell surface biotinylation internalization assay, transferrin receptor. Particulars: 16 h time point, DAPT 1 μM. The procedure:
(§1) All reagents, except otherwise stated, were kept on ice. Cells (450.000 cells for 1 h kinetic and 300.000 cells for 16 h) were plated on 6-cm dishes. 48 h after plating, cells were placed on ice, washed in PBS (pH 8) and next incubated in PBS (pH 8) supplemented with 0.25 mg/ml sulfo-NHS-SS-Biotin (Pierce) (10 min at 4° C.). Excess of biotin was washed out with PBS and cells were incubated in quench buffer (0.5% BSA, 100 mM Glycine in PBS) for 15 min at 4° C. Cells were then washed with PBS and incubated at 37° C. in complete pre-warmed medium (with or without DAPT 1 μM) for the appropriate time or kept at 4° C. as a control. Endocytosis was quickly stopped by placing the dishes back on ice and washing the cells with ice-cold PBS. Remaining biotin at the cell surface was cleaved off by incubating the cells twice in PBS containing 100 mM 2-sodium-2-mercaptoethanesulfonate (Sigma) as a reducing agent (15 min at 4° C.). […] Total protein was measured and biotinylated proteins were pulled down from equal amounts of extracts using streptavidin Sepharose beads (Pierce) (4° C., overnight on a rotation wheel). […] To evaluate the internalized pool for each protein to total cell surface, the (R37-R0)/NR*100 ratio for each time point were quantified. For the 16 h time point, the R37/NR*100 were quantified for each condition. […]

A further test deals with FAD-PSEN1 mutants. Description: Late endosomal localisation of FAD-PSEN1 mutants in PSEN1 KO MEFs. As to conditions: DAPT 1 μM 16 h. The procedure:
FIG. 6. Familial Alzheimer's disease (FAD) mutations in PSEN1 differently affect g-secretase localization in late endosomes. Ratio of GFP intensity in LAMP1 endosomes over total GFP signal in PSEN1 KO MEFs stably rescued with GFP-PSEN1 wild-type (Wt) or the indicated FAD-PSEN1 mutants and treated with DMSO or DAPT (1 μM) 16 h.
As these mutations were reported to have an early onset and high thermo-instability (reflecting lowest processivity), we extended this experiment to other mutations reported in Szaruga et al (2017 Cell 170). In line with the above, the PSEN1-P88L mutation translocated PSEN1/g-secretase to late endosomes as well. […] These mutations have a higher onset and affect the Ab processivity less as compared to L166P, G384A and P88L mutants.

For a further test, the target named is T1, g-secretase complex (Homo sapiens, UniProt P49768).
T1 construct: expressed in transfected cells
Description: Cadherin CTF and APP CTF accumulation (Western blot). Particulars: FIG. 7 Western blot. The method, then:
Second, of all these compounds, the inhibitory action on g-secretase activity was determined by quantifying the production of the C-terminal fragments (CTF) of Cadherin and APP. Both Cadherin-CTF and APP-CTF accumulate when the enzymatic activity of the g-secretase complex is inhibited. As can be appreciated from the Western blot in FIG. 7, all tested g-secretase inhibitors (C1, C2, C4 and C8) induced the level of Cadherin CTF and APP CTF in contrast to the negative control and the g-secretase stabilizers.
(§2) Protein concentrations were determined by the Bio-Rad DC protein assay (Bio-Rad). Samples were separated by SDS-PAGE (4-12% Bis-Tris NuPAGE gels in MES running buffer (ThermoFisher Scientific) and transferred onto nitrocellulose membranes (ThermoFisher Scientific). After blocking in 5% non-fat milk, membranes were incubated with primary antibody (4° C., overnight) followed by washing and incubation with horseradish peroxidase (HRP)-conjugated secondary antibodies (1 h, room temperature). After final washing, immunodetection was done using enhanced chemiluminescence (Western Lightning-Plus ECL, PerkinElmer), and immunoreactive protein bands were digitally captured and quantified on a Fuji MiniLAS 3000 imager (Fuji, Dusseldorf, Germany) using Aida Image Analyzer software (Raytest, Germany). Data are represented as mean±SEM of at least three independent experiments.
For orientation: Immunoblotting shows a protein as a band on a membrane.

A further test deals with PSEN1/g-secretase (Homo sapiens, UniProt P49768). Description: Ab production in MEFs transfected with C99-3×FLAG (Western blot 82E1). More on the design: expressed in transfected cells. Particulars: 16 hours. The procedure:
FIG. 5. Inhibitor dose-effect on Ab production. PSEN1 KO MEFs stably rescued with GFP-PSEN1 and transfected with C99-3×FLAG (6 h) were treated with different concentrations of (A, B) DAPT, or (C) L-685-458 as indicated. After 16 h, condition media and cell lysates were analyzed by Western blot using 82E1 monoclonal antibody to detect AP. Representative blot is shown in […] for DAPT treatment and quantification is shown in (B): mean+SEM, n=3 independent experiments. (C) PSEN1 KO MEFs. Quantification for L-685-458 is shown in (C), n=1.
Based on these new data, it is crucial to compare the sensitivity to g-secretase inhibitors of the g-secretase complex located in the late endosomes (producing intracellular Ab) and the broadly localised g-secretase complex (producing extracellular Ab). We therefore compared the dose-dependencies of translocated PSEN1/g-secretase with catalytic inhibition by DAPT. MEFs were transfected with APP-C99-3×FLAG for 6 hours and treated with different doses of DAPT. After 16 hours, conditioned media and cell lysates were collected and analysed by Western blotting for total secreted and intracellular Ab, respectively. This resulted for DAPT in a lower IC50 for secreted Ab inhibition (FIG. 5A-B).
as §2

Another test relates to NCT. Description: Cell surface biotinylation internalization assay, NCT. Particulars: DAPT 1 μM. The method, then:
as §1

For the molecule `C[C@H](NC(=O)Cc1cc(F)cc(F)c1)C(=O)N[C@H](C(=O)OC(C)(C)C)c1ccccc1` [DAPT, N—[N-(3,5-difluorophenacetyl)-L-alanyl]-S-phenylglycine t-butyl ester], in the test with transferrin receptor, the “biotinylated transferrin receptor pulled down” value is on record as “no differences were found”. For the same molecule, the “late endosomal localization of mutant PSEN1” value in the test with FAD-PSEN1 mutants (L166P, G384A, P88L mutants) is recorded as “did not further increase late endosomal localization”. Also, the “shift of PSEN1/g-secretase to late endosomes” value in the test on FAD-PSEN1 mutants (Y115H and E280A mutants) is listed as “did not shift PSEN1/g-secretase to late endosomes, unless treated with DAPT”. Further, the “level of APP CTF” value on g-secretase complex is recorded as “accumulate”. Moreover, at g-secretase complex, the “level of Cadherin CTF” value is listed as “accumulate”. The IC50 at PSEN1/g-secretase (cell lysates, read-out: IC50 intracellular Ab) came to 0.021 µM; on PSEN1/g-secretase (conditioned media, read-out: IC50 for secreted Ab inhibition), 0.016 µM. For the same molecule, the “internalized NCT (internalization kinetics)” value in the test on NCT (5, 10, 30 and 60 min) is reported as “did not reveal significant differences in internalized NCT”. Also, in the test on NCT (16 h time point), the “amount of biotinylated NCT pulled down” value is given as “doubling of the amount of biotinylated NCT”.
